From PMC4532598 (European journal of pharmacology, 2015)
Entries after “also recorded” stand apart in the source; their conditions may differ.

Columns and labels:
[1] = system: mice; conditions: mouse, in vivo; cited from earlier work
[2] = target: T1, hKOP receptor (Homo sapiens, UniProt P41145); test: biochemical; format: biochemical; conditions: for Emax: read-out: [35S]GTPγS binding Emax
[3] = target: T1, hKOP receptor; test: cell-based; format: cell-based; conditions: for Emax: read-out: Internalization Emax (% receptor internalized)
[4] = target: T1, hKOP receptor
[5] = target: T2, mKOP receptor (Mus musculus, UniProt P33534); test: biochemical; format: biochemical; conditions: for Emax: read-out: [35S]GTPγS binding Emax
T2 sequence (P33534 whole entry): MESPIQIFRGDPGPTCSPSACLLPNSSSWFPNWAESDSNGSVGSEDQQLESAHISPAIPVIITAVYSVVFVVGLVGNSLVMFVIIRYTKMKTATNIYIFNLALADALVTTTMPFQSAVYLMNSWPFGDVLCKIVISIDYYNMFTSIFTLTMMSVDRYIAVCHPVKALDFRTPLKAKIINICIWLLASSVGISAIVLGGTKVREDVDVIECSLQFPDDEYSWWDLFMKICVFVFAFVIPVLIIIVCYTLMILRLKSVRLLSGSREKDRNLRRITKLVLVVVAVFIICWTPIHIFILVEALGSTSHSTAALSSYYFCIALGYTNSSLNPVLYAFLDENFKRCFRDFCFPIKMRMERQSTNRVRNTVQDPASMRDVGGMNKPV

[6] = target: T2, mKOP receptor; test: cell-based; format: cell-based
[7] = target: T2, mKOP receptor

T1 sequence (P41145 whole entry): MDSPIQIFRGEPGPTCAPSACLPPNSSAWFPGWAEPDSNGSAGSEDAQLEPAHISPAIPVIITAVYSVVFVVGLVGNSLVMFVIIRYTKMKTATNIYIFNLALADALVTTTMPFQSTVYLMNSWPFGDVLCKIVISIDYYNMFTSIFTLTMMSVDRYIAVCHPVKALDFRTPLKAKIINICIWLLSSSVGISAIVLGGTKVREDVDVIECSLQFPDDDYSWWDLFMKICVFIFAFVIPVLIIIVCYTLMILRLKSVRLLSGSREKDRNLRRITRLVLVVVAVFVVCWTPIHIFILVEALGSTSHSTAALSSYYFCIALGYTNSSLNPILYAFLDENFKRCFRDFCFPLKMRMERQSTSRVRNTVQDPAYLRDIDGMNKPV

Row | Compound | EC50 ([2]; [35S]GTPγS binding pEC50) [nM] | Emax [2] [%] | Internalization Emax (% receptor internalized) [3] | EC50 ([3]; Internalization pEC50) [nM] | Emax [3] [%] | Bias factor (larger RAi divided by smaller) [4] | Bias factor, direction of bias [4] | Functional selectivity (bias) in words [4] | EC50 ([2]; [35S]GTPγS binding EC50, mean) [nM] | log RAi−I [3] | also measured
1 | RB-64 |  |  |  |  |  |  |  |  |  |  | Sedation and anhedonia-like actions [1]: did not induce sedation or anhedonia-like effects
2 | C=CCN1CC[C@]23c4c5ccc(O)c4O[C@H]2[C@@H](O)C=C[C@H]3[C@H]1C5 [Nalorphine, nalorphine] | 27.5 | 51.4 ± 2.3 | 23.7 ± 4.0% | 12 | 23.9 | I ^c, 2.5 | I ^c, 2.5 | did not reach statistical significance |  |  | 
3 | CCC12CCN(CC3(O)CC3)C(Cc3ccc(O)cc31)C2(C)C (centres unmarked) [Bremazocine, bremazocine] |  | 68.2 ± 2 |  | 1.35 | 39.2 ± 1.8 | I ^c, 1.2 | I ^c, 1.2 | did not reach statistical significance | 0.95 | 0.58 ± 0.16 | log RAi−G [2]: 0.50 ± 0.11; EC50 ([3]; Internalization EC50, mean): 1.4 nM
4 | CN1c2ccccc2C(c2ccccc2F)=NCC1CNC(=O)c1ccsc1 (centres unmarked) [Tifluadom, tifluadom] |  | 97.2 ± 11 |  | 11.2 | 29.6 ± 2.1 |  | I, 11.8 |  | 333 |  | 
5 | CN1CC[C@]23CCCC[C@H]2[C@H]1Cc1ccc(O)cc13 [Levorphanol, levorphanol] |  | 38.1 ± 4.8 | did not cause significant internalization; also recorded: lacked an effect on receptor internalization; also recorded: did not cause receptor internalization; also recorded: No internalization |  |  |  |  |  | 72 |  | Agonist efficacy in [35S]GTPγS binding, in words [2]: weak partial agonist; also recorded: partial agonists; Internalization pEC50 [3]: No internalization; Agonist efficacy in [35S]GTPγS binding, in words [5]: partial agonists; EC50 ([5]; [35S]GTPγS binding pEC50): 30.2 nM; Emax [5]: 62.3 ± 2.9%; EC50 [6]: 0.83 nM; log RAi−I [6]: 0.29 ± 0.35; Emax ([6]; read-out: Internalization Emax (% receptor internalized)): 29.7 ± 1.7%; Bias factor, direction of bias [7]: I, 244; Bias factor, direction, mKOP receptor (Table 5) [7]: I, 244; Bias factor, mKOP receptor (Table 5) [7]: I, 244; Functional selectivity (bias) in words [7]: internalization-biased; log RAi−G/RAi−I (log bias) [7]: −2.39 ± 0.37
6 | COC(=O)/C=C/C(=O)N[C@@H]1CC[C@@]2(O)[C@H]3Cc4ccc(O)c5c4[C@@]2(CCN3CC2CC2)[C@H]1O5 [β-FNA, β-funaltrexamine] |  |  | 32.8 ± 5.7% |  |  | I ^c, 1.2 | I ^c, 1.2 | did not reach statistical significance |  |  | [35S]GTPγS binding Emax [2]: 63.7 ± 2.4%; [35S]GTPγS binding pEC50 [2]: 8.08 ± 0.09 (8.4); EC50 ([2]; read-out: [35S]GTPγS binding EC50, mean): 8.4 nM; Internalization pEC50 [3]: 8.02 ± 0.47 (9.6); EC50 ([3]; read-out: Internalization EC50, mean): 9.6 nM
7 | Oc1ccc2c(c1)[C@@]13CCCC[C@@]1(O)[C@@H](C2)N(CC1CCC1)CC3 [Butorphanol, butorphanol] | 2.34 | 25.6 ± 1.8 |  | 3.31 | 33.4 ± 3.2 |  | I ^c, 4.7 | did not reach statistical significance | 2.4 | 0.088 ± 0.18 | 
8 | COC(=O)[C@@H]1C[C@H](OC(C)=O)C(=O)[C@H]2[C@@]1(C)CC[C@H]1C(=O)O[C@H](c3ccoc3)C[C@]21C [Salvinorin A, salvinorin A] |  |  |  |  |  |  |  |  |  |  | Sedation and anhedonia-like actions [1]: produced sedation and anhedonia-like actions
9 | CC[C@]12CCN(CC3CC3)[C@H](C(=O)c3ccc(O)cc31)[C@@H]2C [EKC, ethylketocyclazocine] |  | 80.6 ± 1.5 |  |  | 44.8 ± 2.2 |  | I, 3.1 |  |  |  | log RAi−G [2]: 0.015 ± 0.11
10 | CC(C)=CCN1CCC2(C)c3cc(O)ccc3CC1C2C (centres unmarked) [Pentazocine, pentazocine] | 28.2 | 20.5 ± 6.9 |  | 91.2 | 37 ± 13.3 | I ^c, 5.8 | I ^c, 5.8 |  | 28 | −0.87 ± 0.22 | Agonist efficacy in [35S]GTPγS binding, in words [2]: partial agonists; EC50 ([3]; Internalization EC50, mean): 92 nM; Agonist efficacy in [35S]GTPγS binding, in words [5]: partial agonists; Emax [5]: 46.6 ± 2.7%; Internalization Emax (% receptor internalized) [6]: did not cause significant internalization; also recorded: lacked significant effects on receptor internalization; also recorded: did not cause receptor internalization; also recorded: not mKOP receptor; also recorded: No internalization; Bias factor, direction, hKOP receptor (Table 5) [4]: I ^c, 5.8; Bias factor, hKOP receptor (Table 5) [4]: I ^c, 5.8
